From US20190060239A1, “Technology for the Preparation of Microparticles” (Ansun Biopharma, Inc., priority 2007, published 2019) come the findings set out here.

Data set [1] is described as follows: Microsphere quality score by light microscopy (scoring system of Table 13). Type of data set: physicochemical. The settings on record: for microsphere formation: control. As to the method:
For each of the compounds listed in A-D above, and for DAS181, cocktail solutions containing 2 mg/ml of compound dissolved in an aqueous solvent and various counterions, antisolvents and pH, as listed below, were prepared in a 96-well microtiter plate (0.1 ml cocktail/well) at room temperature. Control solutions contained either solvent or antisolvent alone, with or without the counterion. Cocktails were cooled by placing in a freezer. The chilled plates were transferred onto pre-chilled (−45° C.) shelves of a Millrock Lab Series Lyophilizer, and the vacuum was applied. The frozen cocktail solutions were allowed to lyophilize for 16 hours.
The lyophilized powders from the bottoms of the wells were transferred onto glass slides and analyzed by light microscopy for appearance. The quality of the product microspheres was scored based on the uniformity of the microspheres, the absence of undesirable non-microsphere particles (glass-like crystalline forms), and the absence of aggregates.
Arginine was used as counterion and isopropanol was used as antisolvent. Concentrations of each of the cocktail components—the compound, the counterion and the antisolvent—were varied as shown below in Table 15, and the effect on microsphere quality assessed.
Experiments were performed to evaluate the effect of antisolvent and counterion concentration variation on the formation of microspheres. The peptides leuprolide and somatostatin, and the antibiotics vancomycin and tobramycin, were tested under a variety of conditions for forming microspheres. Samples were analyzed in 96-well plates as described in the previous Examples.
The experiments were performed using PGI2 and an analog of PGI2, Ciprostene, at a concentration of 2 mg/ml. Cocktail solutions were mixed at room temperature, then cooled by placing in a freezer. The chilled plates were transferred onto pre-chilled (−45° C.) shelves of a Millrock Lab Series Lyophilizer, and the vacuum was applied. The frozen cocktail solutions were allowed to lyophilize for 16 hours.
Because the resulting prostaglandin microspheres are hygroscopic, upon microsphere initiation, the humidity was maintained at low levels during the experiments, using a nitrogen gas tank attached to the backfill system on the lyophilizer. Each of the reaction tubes was flushed with N2. In addition, the backfill valve on the lyophilizer was left open to continually flush a low humidity atmosphere over the samples. The microscope used to visualize the resulting microspheres was contained within a plastic bag that was continually purged with dry N2. Sample tubes were placed under the bag to equilibrate for approximately 30 seconds, before opening and spreading onto the glass slide.
The compound/counterion/antisolvent conditions were as follows:
Experiments were performed with 200 μl of each of the above cocktail solutions in a 2 ml lyophilization bottle (first flash freeze condition), and 25 μl of each of the above cocktail solutions in a PCR tube (second flash freeze condition). The samples in the lyophilization bottles took approximately 15 seconds to freeze. The samples in the PCR tubes took approximately 3 seconds or less to freeze.
The cocktails in the 96-well plates were cooled by placing in a freezer. The chilled plates were transferred onto pre-chilled (−45° C.) shelves of a Millrock Lab Series Lyophilizer, and a vacuum was applied. The frozen cocktail solutions were allowed to lyophilize for 16 hours.
The lyophilized powders from the bottoms of the wells were transferred onto glass slides and analyzed by light microscopy for appearance.

A short description of data set [2]: Microsphere formation, size and appearance by light microscopy. Type of data set: physicochemical. Conditions: 5 mg/ml protein.

As for `CC1(C)S[C@@H]2[C@H](NC(=O)[C@H](N)c3ccccc3)C(=O)N2[C@H]1C(=O)O` [Ampicillin], the “Microsphere Quality” value was 3/4 in data set [1] (2 mg/ml compound, 2 mM Na-Citrate, 5% n-propanol, pH 5.0) and 3-5 in data set [1] (2 mg/ml compound, 2 mM Na-Glutamate, 5% n-propanol, pH 4.0).

Take `CCCCC[C@H](O)/C=C/[C@@H]1[C@H]2C/C(=C/CCCC(=O)O)O[C@H]2C[C@H]1O` [Prostaglandin I2]: the “Microsphere Quality” value in data set [1] (compound 2 mg/ml, 2 mM Arginine, pH 9, 20% n-propanol, 5% t-butanol) is listed as 7/8; in data set [1] (compound 2 mg/ml, 2 mM Arginine, pH 9, 20% n-propanol, 55% t-butanol), 5/6; in data set [1] (compound 2 mg/ml, 2 mM TEA, pH 11, 20% n-propanol, 5% t-butanol), 7/8; in data set [1] (compound 2 mg/ml, 2 mM TEA, pH 11, 30% n-propanol, 0% t-butanol), 2/3.

For `NC[C@H]1O[C@H](O[C@H]2[C@H](O)[C@@H](O[C@H]3O[C@H](CO)[C@@H](O)[C@H](N)[C@H]3O)[C@H](N)C[C@@H]2N)[C@H](N)C[C@@H]1O` [Tobramycin], the “Microsphere Quality” value in data set [1] (compound 2 mg/ml, Itaconic acid-Na, pH 4.0 2 mM, Isopropanol 0%) is listed as 4/5; in data set [1] (compound 2 mg/ml, Itaconic acid-Na, pH 4.0 2 mM, Isopropanol 5%) it was 7/8; in data set [1] (compound 2 mg/ml, Itaconic acid-Na, pH 4.0 2 mM, Isopropanol 30%), 8/9; in data set [1] (compound 2 mg/ml, Itaconic acid-Na, pH 4.0 2 mM, Isopropanol 40%), 6/7; in data set [1] (compound 2 mg/ml, Itaconic acid-Na, pH 4.0 2 mM, Isopropanol […]), 7/8; in data set [1] (compound 2 mg/ml, Itaconic acid-Na, pH 4.0 5 mM, Isopropanol 5%) it was “Crystals”. For the same molecule, the “Microsphere Quality” value is on record as “Crystals” in data set [1] (compound 2 mg/ml, Itaconic acid-Na, pH 4.0 10 mM, Isopropanol 5%); “Crystals” in data set [1] (compound 2 mg/ml, Itaconic acid-Na, pH 4.0 15 mM, Isopropanol 5%); “Crystals” in data set [1] (compound 2 mg/ml, Itaconic acid-Na, pH 4.0 17 mM, Isopropanol 5%); “Crystals” in data set [1] (pH 4).

Regarding `C=C(CC(=O)O)C(=O)O` [itaconic acid], the microsphere formation result in data set [1] (no added compound: 2 mM itaconic acid buffered to pH 7, 5% isopropanol) is listed as “hygroscopic microspheres”; in data set [1] (no added compound: 2 mM itaconic acid buffered with sodium hydroxide at pH 4, 15% isopropanol), “microspheres were formed”.

With `CCNC(=O)[C@@H]1CCCN1C(=O)[C@H](CCCNC(=N)N)NC(=O)[C@H](CC(C)C)NC(=O)[C@@H](CC(C)C)NC(=O)[C@H](Cc1ccc(O)cc1)NC(=O)[C@H](CO)NC(=O)[C@H](Cc1c[nH]c2ccccc12)NC(=O)[C@H](Cc1c[nH]cn1)NC(=O)[C@@H]1CCC(=O)N1` [leuprolide], in data set [1] (2 mM Na-citrate, 15% isopropanol, pH 4.0), the “Microsphere Quality” value is on record as 5/6.

With Green fluorescent protein, the “Microsphere Size (microns)” value in data set [2] (5 mM pivalic acid, pH 7.0, 10% 1-propanol) was 0.5-1.5 microns.

As for Hemoglobin, the “Microsphere Size (microns)” value in data set [2] (5 mM glycine, pH 5.0, 10% isopropanol) is reported as 0.4-0.7 microns.

Take Lysozyme: purchased from Sigma: the “Microsphere Size (microns)” value in data set [2] (5 mM citrate, pH 8.0, 5% isopropanol) was 4-5 microns.

B1: Ovalbumin: purchased from Sigma (protein, UniProt P01012 2-386, looked up)
Ovalbumin: GSIGAASMEFCFDVFKELKVHHANENIFYCPIAIMSALAMVYLGAKDSTRTQINKVVRFDKLPGFGDSIEAQCGTSVNVHSSLRDILNQITKPNDVYSFSLASRLYAEERYPILPEYLQCVKELYRGGLEPINFQTAADQARELINSWVESQTNGIIRNVLQPSSVDSQTAMVLVNAIVFKGLWEKAFKDEDTQAMPFRVTEQESKPVQMMYQIGLFRVASMASEKMKILELPFASGTMSMLVLLPDEVSGLEQLESIINFEKLTEWTSSNVMEERKIKVYLPRMKMEEKYNLTSVLMAMGITDVFSSSANLSGISSAESLKISQAVHAAHAEINEAGREVVGSAEAGVDAASVSEEFRADHPFLFCIKHIATNAVLFFGRCVSP
On to B1, for which, in data set [2] (5 mM pivalic acid, pH 4.0, 10% isopropanol), the “Microsphere Size (microns)” value is recorded as 0.5-1 microns.

B2: RNase A: purchased from Sigma (protein, UniProt P61823 27-150, looked up)
Ribonuclease pancreatic: KETAAAKFERQHMDSSTSAASSSNYCNQMMKSRNLTKDRCKPVNTFVHESLADVQAVCSQKNVACKNGQTNCYQSYSTMSITDCRETGSSKYPNCAYKTTQANKHIIVACEGNPYVPVHFDASV
As for B2, the “Microsphere Size (microns)” value in data set [2] (5 mM citrate, pH 4.0, 5% isopropanol) is given as 0.4-1 microns.

B3: Trypsin: purchased from Worthington (protein, UniProt P00760 24-246, looked up)
Serine protease 1: IVGGYTCGANTVPYQVSLNSGYHFCGGSLINSQWVVSAAHCYKSGIQVRLGEDNINVVEGNEQFISASKSIVHPSYNSNTLNNDIMLIKLKSAASLNSRVASISLPTSCASAGTQCLISGWGNTKSSGTSYPDVLKCLKAPILSDSSCKSAYPGQITSNMFCAGYLEGGKDSCQGDSGGPVVCSGKLQGIVSWGSGCAQKNKPGVYTKVCNYVSWIKQTIASN
B3: the “Microsphere Size (microns)” value in data set [2] (5 mM arginine, pH 8.0, 5% isopropanol) is 0.5-1 microns.
